Measurements taken from paper PMC4265155, “A highly charged region in the middle domain of plant endoplasmic reticulum (ER)-localized heat-shock protein 90 is required for resistance to tunicamycin or high calcium-induced ER stresses” (Journal of Experimental Botany, 2014).

Biological target: T1, CfGRP94 (canine GRP94 73–754Δ41) (Canis lupus, UniProt P41148, DEL287-327, form not given)
T1 construct: gene HSP90B1
Details: geldanamycin-sensitive activity; 25 mM HEPES pH 7.5, 5 mM MgCl2, 400 mM KCl, 0.03% Tween 20, 10% glycerol
From the text: NADH-coupled ATPase assay (pyruvate kinase / lactate dehydrogenase) on CfGRP94 (canine GRP94 73–754Δ41)

T1 sequence (P41148 73-286, stated change not applied): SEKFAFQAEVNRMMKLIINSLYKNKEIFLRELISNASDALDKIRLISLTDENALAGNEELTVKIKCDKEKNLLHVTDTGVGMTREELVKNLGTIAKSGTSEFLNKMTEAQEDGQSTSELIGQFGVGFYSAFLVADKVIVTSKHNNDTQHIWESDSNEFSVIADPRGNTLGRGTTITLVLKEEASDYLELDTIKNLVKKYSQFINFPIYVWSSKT
T1 sequence (P41148 328-754, stated change not applied): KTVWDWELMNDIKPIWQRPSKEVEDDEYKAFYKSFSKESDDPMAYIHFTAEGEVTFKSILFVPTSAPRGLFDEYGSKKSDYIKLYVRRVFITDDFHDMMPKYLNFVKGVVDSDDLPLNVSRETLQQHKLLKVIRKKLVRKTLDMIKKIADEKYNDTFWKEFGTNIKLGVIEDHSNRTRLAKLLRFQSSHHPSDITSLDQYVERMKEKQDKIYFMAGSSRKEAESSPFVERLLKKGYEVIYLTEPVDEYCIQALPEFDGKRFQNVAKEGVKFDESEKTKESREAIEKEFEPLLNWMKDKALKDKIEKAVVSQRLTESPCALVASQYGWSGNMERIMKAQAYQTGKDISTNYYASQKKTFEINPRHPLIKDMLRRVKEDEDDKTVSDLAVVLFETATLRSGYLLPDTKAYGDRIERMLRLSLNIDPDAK

Km: 65 ± 13 µM
Structure (SMILES): Nc1ncnc2c1ncn2[C@@H]1O[C@H](COP(=O)(O)OP(=O)(O)OP(=O)(O)O)[C@@H](O)[C@H]1O [ATP]
